In PubChem BioAssay (NCI):
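These data come from cells grown in 96-well plates and exposed to compound for 48 hours at five concentrations. Here, GI50 denotes the concentration required for 50% inhibition of growth. TGI: concentration producing complete growth inhibition.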

How the values were obtained:
Assay in all cases: inhibition of tumour cell growth, NCI panel, 48 h
786-0 renal = tested on: 786-0 renal
A498 renal = tested on: A498 renal
A549 NSCLC = tested on: A549 NSCLC
ACHN renal = tested on: ACHN renal
BT-549 breast = tested on: BT-549 breast
CAKI-1 renal = tested on: CAKI-1 renal
CCRF-CEM leukemia = tested on: CCRF-CEM leukemia
COLO 205 colon = tested on: COLO 205 colon
DU-145 prostate = tested on: DU-145 prostate
EKVX NSCLC = tested on: EKVX NSCLC
HCC-2998 colon = tested on: HCC-2998 colon
HCT-116 colon = tested on: HCT-116 colon
HCT-15 colon = tested on: HCT-15 colon
HL-60(TB) leukemia = tested on: HL-60(TB) leukemia
HOP-62 NSCLC = tested on: HOP-62 NSCLC
HOP-92 NSCLC = tested on: HOP-92 NSCLC
HS 578T breast = tested on: HS 578T breast
HT29 colon = tested on: HT29 colon
IGROV1 ovarian = tested on: IGROV1 ovarian
K-562 leukemia = tested on: K-562 leukemia
KM12 colon = tested on: KM12 colon
LOX IMVI melanoma = tested on: LOX IMVI melanoma
M14 melanoma = tested on: M14 melanoma
MALME-3M melanoma = tested on: MALME-3M melanoma
MCF7 breast = tested on: MCF7 breast
MDA-MB-231 breast = tested on: MDA-MB-231 breast
MDA-MB-435 = tested on: MDA-MB-435
MDA-MB-468 breast = tested on: MDA-MB-468 breast
MOLT-4 leukemia = tested on: MOLT-4 leukemia
NCI-H226 lung = tested on: NCI-H226 lung
NCI-H23 lung = tested on: NCI-H23 lung
NCI-H460 lung = tested on: NCI-H460 lung
NCI-H522 lung = tested on: NCI-H522 lung
NCI/ADR-RES ovarian = tested on: NCI/ADR-RES ovarian
OVCAR-3 ovarian = tested on: OVCAR-3 ovarian
OVCAR-4 ovarian = tested on: OVCAR-4 ovarian
OVCAR-5 ovarian = tested on: OVCAR-5 ovarian
OVCAR-8 ovarian = tested on: OVCAR-8 ovarian
PC-3 prostate = tested on: PC-3 prostate
RPMI-8226 leukemia = tested on: RPMI-8226 leukemia
RXF 393 renal = tested on: RXF 393 renal
SF-268 CNS = tested on: SF-268 CNS
SF-295 CNS = tested on: SF-295 CNS
SF-539 CNS = tested on: SF-539 CNS
SK-MEL-2 melanoma = tested on: SK-MEL-2 melanoma
SK-MEL-28 melanoma = tested on: SK-MEL-28 melanoma
SK-MEL-5 melanoma = tested on: SK-MEL-5 melanoma
SK-OV-3 ovarian = tested on: SK-OV-3 ovarian
SN12C renal = tested on: SN12C renal
SNB-19 CNS = tested on: SNB-19 CNS
SNB-75 CNS = tested on: SNB-75 CNS
SR leukemia = tested on: SR leukemia
SW-620 colon = tested on: SW-620 colon
T-47D breast = tested on: T-47D breast
TK-10 renal = tested on: TK-10 renal
U251 CNS = tested on: U251 CNS
UACC-257 melanoma = tested on: UACC-257 melanoma
UACC-62 melanoma = tested on: UACC-62 melanoma
UO-31 renal = tested on: UO-31 renal

Cc1ccc(C(=O)CSc2nnc(-c3c[nH]c4ccccc34)n2-c2ccccc2)cc1
GI50 (786-0 renal): 14.7 µM
TGI (786-0 renal): 31.2 µM
GI50 (A498 renal): 22.1 µM
TGI (A498 renal): 69.4 µM
GI50 (A549 NSCLC): 13.9 µM
TGI (A549 NSCLC): 48.5 µM
GI50 (ACHN renal): 13.7 µM
TGI (ACHN renal): 29.2 µM
GI50 (BT-549 breast): 25.1 µM
TGI (BT-549 breast): 46.7 µM
GI50 (CAKI-1 renal): 14.9 µM
TGI (CAKI-1 renal): 29.8 µM
GI50 (CCRF-CEM leukemia): 54.4 µM
TGI (CCRF-CEM leukemia): > 100 µM
GI50 (COLO 205 colon): 34.4 µM
TGI (COLO 205 colon): > 100 µM
GI50 (DU-145 prostate): 44.3 µM
TGI (DU-145 prostate): > 100 µM
GI50 (EKVX NSCLC): 19 µM
TGI (EKVX NSCLC): 98.9 µM
GI50 (HCC-2998 colon): 20 µM
TGI (HCC-2998 colon): 51.7 µM
GI50 (HCT-116 colon): 18.7 µM
TGI (HCT-116 colon): 60.4 µM
GI50 (HCT-15 colon): 22.6 µM
TGI (HCT-15 colon): > 100 µM
GI50 (HL-60(TB) leukemia): 30.8 µM
TGI (HL-60(TB) leukemia): > 100 µM
GI50 (HOP-62 NSCLC): 16.1 µM
TGI (HOP-62 NSCLC): 35.9 µM
GI50 (HOP-92 NSCLC): 14.7 µM
TGI (HOP-92 NSCLC): 34.7 µM
GI50 (HS 578T breast): 14.1 µM
TGI (HS 578T breast): 56.3 µM
GI50 (HT29 colon): 15.6 µM
TGI (HT29 colon): 50.5 µM
GI50 (IGROV1 ovarian): 16.1 µM
TGI (IGROV1 ovarian): 31.3 µM
GI50 (K-562 leukemia): 22.1 µM
TGI (K-562 leukemia): > 100 µM
GI50 (KM12 colon): 36.1 µM
TGI (KM12 colon): > 100 µM
GI50 (LOX IMVI melanoma): 14.3 µM
TGI (LOX IMVI melanoma): 27.3 µM
GI50 (M14 melanoma): 32.1 µM
TGI (M14 melanoma): > 100 µM
GI50 (MALME-3M melanoma): 16.2 µM
TGI (MALME-3M melanoma): 36.2 µM
GI50 (MCF7 breast): 15.7 µM
TGI (MCF7 breast): 39.2 µM
GI50 (MDA-MB-231 breast): 15.4 µM
TGI (MDA-MB-231 breast): 32.6 µM
GI50 (MDA-MB-435): 22.8 µM
TGI (MDA-MB-435): 65.4 µM
GI50 (MDA-MB-468 breast): 12.8 µM
TGI (MDA-MB-468 breast): 32.3 µM
GI50 (MOLT-4 leukemia): 21.8 µM
TGI (MOLT-4 leukemia): > 100 µM
GI50 (NCI-H226 lung): 9.22 µM
TGI (NCI-H226 lung): 26.1 µM
GI50 (NCI-H23 lung): 13.7 µM
TGI (NCI-H23 lung): 27.5 µM
GI50 (NCI-H460 lung): 15.2 µM
TGI (NCI-H460 lung): 31 µM
GI50 (NCI-H522 lung): 16.3 µM
TGI (NCI-H522 lung): 43.7 µM
GI50 (NCI/ADR-RES ovarian): 11.9 µM
TGI (NCI/ADR-RES ovarian): 30.2 µM
GI50 (OVCAR-3 ovarian): 18 µM
TGI (OVCAR-3 ovarian): 43.3 µM
GI50 (OVCAR-4 ovarian): 14.5 µM
TGI (OVCAR-4 ovarian): 41.5 µM
GI50 (OVCAR-5 ovarian): 19.4 µM
TGI (OVCAR-5 ovarian): 37.2 µM
GI50 (OVCAR-8 ovarian): 24.5 µM
TGI (OVCAR-8 ovarian): > 100 µM
GI50 (PC-3 prostate): 12.4 µM
TGI (PC-3 prostate): 37.8 µM
GI50 (RPMI-8226 leukemia): 29.8 µM
TGI (RPMI-8226 leukemia): > 100 µM
GI50 (RXF 393 renal): 13.6 µM
TGI (RXF 393 renal): 28.9 µM
GI50 (SF-268 CNS): 24.2 µM
TGI (SF-268 CNS): 78.9 µM
GI50 (SF-295 CNS): 12.6 µM
TGI (SF-295 CNS): 25.9 µM
GI50 (SF-539 CNS): 15 µM
TGI (SF-539 CNS): 28.5 µM
GI50 (SK-MEL-2 melanoma): 30.2 µM
TGI (SK-MEL-2 melanoma): > 100 µM
GI50 (SK-MEL-28 melanoma): 19.6 µM
TGI (SK-MEL-28 melanoma): 52.1 µM
GI50 (SK-MEL-5 melanoma): 16.5 µM
TGI (SK-MEL-5 melanoma): 39.1 µM
GI50 (SK-OV-3 ovarian): 17 µM
TGI (SK-OV-3 ovarian): 33.1 µM
GI50 (SN12C renal): 19.4 µM
TGI (SN12C renal): 48.9 µM
GI50 (SNB-19 CNS): 15.8 µM
TGI (SNB-19 CNS): 34.5 µM
GI50 (SNB-75 CNS): 12.9 µM
TGI (SNB-75 CNS): 29.6 µM
GI50 (SR leukemia): 42 µM
TGI (SR leukemia): > 100 µM
GI50 (SW-620 colon): 30.3 µM
TGI (SW-620 colon): > 100 µM
GI50 (T-47D breast): 24.9 µM
TGI (T-47D breast): > 100 µM
GI50 (TK-10 renal): 23.2 µM
TGI (TK-10 renal): 44.4 µM
GI50 (U251 CNS): 23.6 µM
TGI (U251 CNS): 65.6 µM
GI50 (UACC-257 melanoma): 28.9 µM
TGI (UACC-257 melanoma): > 100 µM
GI50 (UACC-62 melanoma): 15.3 µM
TGI (UACC-62 melanoma): 38.1 µM
GI50 (UO-31 renal): 14.2 µM
TGI (UO-31 renal): 31.4 µM
